Experimental data reported in PubChem BioAssay (NCI).
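Interpolation was linear, between the two tested concentrations surrounding the appropriate level; five concentrations were tested over 48 hours in 96-well plates. TGI marks complete inhibition of growth.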

Columns and labels:
Assay in all cases: NCI tumour cell line growth inhibition, 48 h
HOP-92 NSCLC = system: HOP-92 NSCLC
CCRF-CEM leukemia = system: CCRF-CEM leukemia
M14 melanoma = system: M14 melanoma
786-0 renal = system: 786-0 renal
EKVX NSCLC = system: EKVX NSCLC
SNB-19 CNS = system: SNB-19 CNS
DU-145 prostate = system: DU-145 prostate
HOP-62 NSCLC = system: HOP-62 NSCLC
KM12 colon = system: KM12 colon
UO-31 renal = system: UO-31 renal
MALME-3M melanoma = system: MALME-3M melanoma
T-47D breast = system: T-47D breast
CAKI-1 renal = system: CAKI-1 renal
HCC-2998 colon = system: HCC-2998 colon
SF-539 CNS = system: SF-539 CNS
U251 CNS = system: U251 CNS
A498 renal = system: A498 renal
SF-295 CNS = system: SF-295 CNS
MDA-MB-231 breast = system: MDA-MB-231 breast
SR leukemia = system: SR leukemia
RXF 393 renal = system: RXF 393 renal
SW-620 colon = system: SW-620 colon
OVCAR-5 ovarian = system: OVCAR-5 ovarian
OVCAR-4 ovarian = system: OVCAR-4 ovarian
NCI-H522 lung = system: NCI-H522 lung
SN12C renal = system: SN12C renal
NCI-H226 lung = system: NCI-H226 lung
MDA-MB-435 = system: MDA-MB-435
MDA-N = system: MDA-N
SK-MEL-5 melanoma = system: SK-MEL-5 melanoma
HT29 colon = system: HT29 colon
NCI-H23 lung = system: NCI-H23 lung
SF-268 CNS = system: SF-268 CNS
PC-3 prostate = system: PC-3 prostate
UACC-257 melanoma = system: UACC-257 melanoma
IGROV1 ovarian = system: IGROV1 ovarian
HL-60(TB) leukemia = system: HL-60(TB) leukemia
HCT-116 colon = system: HCT-116 colon
COLO 205 colon = system: COLO 205 colon
LOX IMVI melanoma = system: LOX IMVI melanoma
BT-549 breast = system: BT-549 breast
MCF7 breast = system: MCF7 breast
NCI/ADR-RES ovarian = system: NCI/ADR-RES ovarian
SK-OV-3 ovarian = system: SK-OV-3 ovarian
HCT-15 colon = system: HCT-15 colon
SNB-75 CNS = system: SNB-75 CNS
OVCAR-3 ovarian = system: OVCAR-3 ovarian
SK-MEL-2 melanoma = system: SK-MEL-2 melanoma
TK-10 renal = system: TK-10 renal
OVCAR-8 ovarian = system: OVCAR-8 ovarian
MOLT-4 leukemia = system: MOLT-4 leukemia
HS 578T breast = system: HS 578T breast
A549 NSCLC = system: A549 NSCLC
UACC-62 melanoma = system: UACC-62 melanoma
RPMI-8226 leukemia = system: RPMI-8226 leukemia
K-562 leukemia = system: K-562 leukemia
ACHN renal = system: ACHN renal
SK-MEL-28 melanoma = system: SK-MEL-28 melanoma
NCI-H460 lung = system: NCI-H460 lung

`O=C(/C=C/C=C/c1ccccc1)CCc1ccccc1` was tested, and the TGI (HOP-92 NSCLC) was > 100 µM, the TGI (CCRF-CEM leukemia) was > 100 µM and the TGI (M14 melanoma) was > 100 µM. For the same compound, the TGI (786-0 renal) was > 100 µM, the TGI (EKVX NSCLC) was > 100 µM and the TGI (SNB-19 CNS) was > 100 µM. The TGI (DU-145 prostate) was > 100 µM, the TGI (HOP-62 NSCLC) was > 100 µM and the TGI (KM12 colon) was > 100 µM. The TGI (UO-31 renal) was > 100 µM, the TGI (MALME-3M melanoma) was > 100 µM and the TGI (T-47D breast) was > 100 µM. The TGI (CAKI-1 renal) was > 100 µM, the TGI (HCC-2998 colon) was > 100 µM and the TGI (SF-539 CNS) was > 100 µM. The TGI (U251 CNS) was > 100 µM, the TGI (A498 renal) was > 100 µM and the TGI (SF-295 CNS) was > 100 µM. For the same compound, the TGI (MDA-MB-231 breast) was > 100 µM, the TGI (SR leukemia) was 63.7 µM and the TGI (RXF 393 renal) was > 100 µM. For the same compound, the TGI (SW-620 colon) was > 100 µM, the TGI (OVCAR-5 ovarian) was > 100 µM and the TGI (OVCAR-4 ovarian) was > 100 µM. For the same compound, the TGI (NCI-H522 lung) was > 100 µM, the TGI (SN12C renal) was > 100 µM and the TGI (NCI-H226 lung) was > 100 µM. For the same compound, the TGI (MDA-MB-435) was > 100 µM, the TGI (MDA-N) was > 100 µM and the TGI (SK-MEL-5 melanoma) was > 100 µM. For the same compound, the TGI (HT29 colon) was > 100 µM, the TGI (NCI-H23 lung) was > 100 µM and the TGI (SF-268 CNS) was > 100 µM. The TGI (PC-3 prostate) was > 100 µM, the TGI (UACC-257 melanoma) was > 100 µM and the TGI (IGROV1 ovarian) was > 100 µM. For the same compound, the TGI (HL-60(TB) leukemia) was 53 µM, the TGI (HCT-116 colon) was > 100 µM and the TGI (COLO 205 colon) was > 100 µM. The TGI (LOX IMVI melanoma) was > 100 µM, the TGI (BT-549 breast) was > 100 µM and the TGI (MCF7 breast) was > 100 µM. The TGI (NCI/ADR-RES ovarian) was > 100 µM, the TGI (SK-OV-3 ovarian) was > 100 µM and the TGI (HCT-15 colon) was > 100 µM. The TGI (SNB-75 CNS) was > 100 µM, the TGI (OVCAR-3 ovarian) was > 100 µM and the TGI (SK-MEL-2 melanoma) was > 100 µM. The TGI (TK-10 renal) was > 100 µM, the TGI (OVCAR-8 ovarian) was > 100 µM and the TGI (MOLT-4 leukemia) was 56.1 µM. The TGI (HS 578T breast) was > 100 µM, the TGI (A549 NSCLC) was > 100 µM and the TGI (UACC-62 melanoma) was > 100 µM.

With `NC(CCl)=NC1CN2CCC1CC2` (stereo unspecified) the TGI (HOP-92 NSCLC) was > 100 µM, the TGI (CCRF-CEM leukemia) was > 100 µM and the TGI (M14 melanoma) was > 100 µM. The TGI (786-0 renal) was > 100 µM, the TGI (EKVX NSCLC) was > 100 µM and the TGI (SNB-19 CNS) was > 100 µM. The TGI (DU-145 prostate) was > 100 µM, the TGI (HOP-62 NSCLC) was > 100 µM and the TGI (KM12 colon) was > 100 µM. The TGI (MALME-3M melanoma) was > 100 µM, the TGI (T-47D breast) was > 100 µM and the TGI (CAKI-1 renal) was > 100 µM. The TGI (SF-539 CNS) was > 100 µM, the TGI (U251 CNS) was > 100 µM and the TGI (A498 renal) was > 100 µM. The TGI (SF-295 CNS) was > 100 µM, the TGI (MDA-MB-231 breast) was > 100 µM and the TGI (RPMI-8226 leukemia) was > 100 µM. For the same compound, the TGI (SR leukemia) was > 100 µM, the TGI (RXF 393 renal) was > 100 µM and the TGI (SW-620 colon) was > 100 µM. For the same compound, the TGI (OVCAR-5 ovarian) was > 100 µM, the TGI (OVCAR-4 ovarian) was > 100 µM and the TGI (NCI-H522 lung) was 58 µM. For the same compound, the TGI (SN12C renal) was > 100 µM, the TGI (NCI-H226 lung) was > 100 µM and the TGI (MDA-MB-435) was > 100 µM. The TGI (MDA-N) was > 100 µM, the TGI (K-562 leukemia) was > 100 µM and the TGI (SK-MEL-5 melanoma) was > 100 µM. For the same compound, the TGI (HT29 colon) was > 100 µM, the TGI (NCI-H23 lung) was > 100 µM and the TGI (ACHN renal) was > 100 µM. For the same compound, the TGI (SF-268 CNS) was > 100 µM, the TGI (PC-3 prostate) was > 100 µM and the TGI (UACC-257 melanoma) was > 100 µM. For the same compound, the TGI (IGROV1 ovarian) was > 100 µM, the TGI (HL-60(TB) leukemia) was > 100 µM and the TGI (HCT-116 colon) was > 100 µM. For the same compound, the TGI (COLO 205 colon) was 73.8 µM, the TGI (LOX IMVI melanoma) was > 100 µM and the TGI (SK-MEL-28 melanoma) was > 100 µM. For the same compound, the TGI (BT-549 breast) was > 100 µM, the TGI (MCF7 breast) was > 100 µM and the TGI (NCI/ADR-RES ovarian) was > 100 µM. The TGI (SK-OV-3 ovarian) was > 100 µM, the TGI (HCT-15 colon) was > 100 µM and the TGI (SNB-75 CNS) was > 100 µM. The TGI (OVCAR-3 ovarian) was > 100 µM, the TGI (SK-MEL-2 melanoma) was > 100 µM and the TGI (NCI-H460 lung) was > 100 µM. For the same compound, the TGI (TK-10 renal) was > 100 µM, the TGI (OVCAR-8 ovarian) was > 100 µM and the TGI (MOLT-4 leukemia) was > 100 µM. The TGI (HS 578T breast) was > 100 µM, the TGI (A549 NSCLC) was > 100 µM and the TGI (UACC-62 melanoma) was > 100 µM.
